The term pIC50 denotes the negative decadic logarithm of the IC50, by convention in mol/L.

The text below walks through data of ChEMBL document CHEMBL4819098, “Novel 1,2,4-triazine-quinoline hybrids: The privileged scaffolds as potent multi-target inhibitors of LPS-induced inflammatory response via dual COX-2 and 15-LOX inhibition” (Eur J Med Chem, 2021).

pIC50: −log10 of the molar value. A value given as a limit tells only on which side of the number the result lay.

For experiment [1], the target named is T1, Prostaglandin G/H synthase 1 (Ovis aries, UniProt P05979).
T1 sequence (P05979 whole entry): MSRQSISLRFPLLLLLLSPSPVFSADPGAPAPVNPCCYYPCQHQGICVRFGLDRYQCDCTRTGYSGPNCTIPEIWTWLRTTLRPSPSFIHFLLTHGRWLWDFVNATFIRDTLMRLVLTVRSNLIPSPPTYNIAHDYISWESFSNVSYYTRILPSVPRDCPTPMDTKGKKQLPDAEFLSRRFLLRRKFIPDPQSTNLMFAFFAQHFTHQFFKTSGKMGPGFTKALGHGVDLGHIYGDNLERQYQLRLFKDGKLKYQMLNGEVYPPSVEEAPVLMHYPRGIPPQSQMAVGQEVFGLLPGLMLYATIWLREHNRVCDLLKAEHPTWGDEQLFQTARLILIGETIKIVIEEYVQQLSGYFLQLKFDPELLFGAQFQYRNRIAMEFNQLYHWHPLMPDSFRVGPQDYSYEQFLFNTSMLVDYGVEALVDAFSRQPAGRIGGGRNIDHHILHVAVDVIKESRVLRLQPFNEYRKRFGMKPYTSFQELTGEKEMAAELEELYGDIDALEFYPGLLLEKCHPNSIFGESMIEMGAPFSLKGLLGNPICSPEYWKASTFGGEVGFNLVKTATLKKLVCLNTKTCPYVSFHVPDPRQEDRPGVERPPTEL
The experiment is described as follows: Inhibition of ovine COX-1 using arachidonic acid as substrate preincubated with enzyme for 5 mins followed by incubation with substrate for 5 mins by colorimetric analysis.

The target in experiment [2] is T2, Prostaglandin G/H synthase 2 (Ovis aries, UniProt P79208).
T2 sequence (P79208 whole entry): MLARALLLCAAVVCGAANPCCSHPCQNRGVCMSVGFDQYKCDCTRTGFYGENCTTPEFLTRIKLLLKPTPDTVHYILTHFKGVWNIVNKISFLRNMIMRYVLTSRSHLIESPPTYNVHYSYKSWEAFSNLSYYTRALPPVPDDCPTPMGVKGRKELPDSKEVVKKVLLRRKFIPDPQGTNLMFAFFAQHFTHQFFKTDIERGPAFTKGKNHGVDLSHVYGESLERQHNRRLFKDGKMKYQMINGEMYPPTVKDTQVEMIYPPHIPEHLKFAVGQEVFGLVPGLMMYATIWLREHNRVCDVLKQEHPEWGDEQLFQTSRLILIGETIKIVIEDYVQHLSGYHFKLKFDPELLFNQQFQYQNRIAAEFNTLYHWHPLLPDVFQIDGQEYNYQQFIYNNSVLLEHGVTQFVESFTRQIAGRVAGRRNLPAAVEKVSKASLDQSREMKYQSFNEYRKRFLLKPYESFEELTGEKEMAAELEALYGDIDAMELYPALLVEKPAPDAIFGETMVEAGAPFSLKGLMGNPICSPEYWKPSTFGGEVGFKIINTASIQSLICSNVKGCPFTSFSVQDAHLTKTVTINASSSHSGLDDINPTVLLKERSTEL
Put plainly: Inhibition of ovine COX-2 using arachidonic acid as substrate preincubated with enzyme for 5 mins followed by incubation with substrate for 5 mins by colorimetric analysis.

Experiment [3] in a line: Inhibition of soybean 5-LOX. Details: species or system Glycine max.
Experiment [4] has as its target T1, Prostaglandin G/H synthase 1. The experiment is described as follows: Inhibition of ovine COX-1 using arachidonic acid as substrate preincubated with enzyme for 20 mins followed by incubation with substrate for 2 mins by ADPH based fluorometric analysis.
The target in experiment [5] is T3, Prostaglandin G/H synthase 2 (Homo sapiens, UniProt P35354).
T3 sequence (P35354 whole entry): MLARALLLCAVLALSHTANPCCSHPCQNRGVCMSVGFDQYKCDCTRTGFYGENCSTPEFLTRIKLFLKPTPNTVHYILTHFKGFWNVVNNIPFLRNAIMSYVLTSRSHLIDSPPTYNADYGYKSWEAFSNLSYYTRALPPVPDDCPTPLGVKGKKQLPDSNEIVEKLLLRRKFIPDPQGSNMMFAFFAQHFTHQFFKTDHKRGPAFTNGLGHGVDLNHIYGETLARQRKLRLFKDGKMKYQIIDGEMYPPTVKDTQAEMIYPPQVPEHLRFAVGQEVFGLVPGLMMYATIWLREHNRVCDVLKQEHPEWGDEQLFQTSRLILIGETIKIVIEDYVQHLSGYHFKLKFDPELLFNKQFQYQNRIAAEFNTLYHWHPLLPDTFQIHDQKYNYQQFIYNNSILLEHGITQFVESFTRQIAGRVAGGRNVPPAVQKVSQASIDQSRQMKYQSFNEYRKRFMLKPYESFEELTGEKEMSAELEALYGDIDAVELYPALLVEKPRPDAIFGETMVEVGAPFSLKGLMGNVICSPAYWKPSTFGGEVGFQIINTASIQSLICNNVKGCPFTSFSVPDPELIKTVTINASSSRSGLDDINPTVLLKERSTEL
The experiment is described as follows: Inhibition of human recombinant COX-2 using arachidonic acid as substrate preincubated with enzyme for 20 mins followed by incubation with substrate for 2 mins by ADPH based fluorometric analysis.

For experiment [6], the target named is T1, Prostaglandin G/H synthase 1. The experiment is described as follows: Inhibition of ovine COX-1 by EIA.
The target in experiment [7] is T2, Prostaglandin G/H synthase 2. Put plainly: Inhibition of ovine COX-2 by EIA.
Experiment [8] deals with T3, Prostaglandin G/H synthase 2. The experiment is described as follows: Inhibition of COX-2 (unknown origin) using arachidonic acid as substrate preincubated with enzyme for 1 min followed by substrate addition by fluorometric analysis.

With `COc1ccc(-c2nn(-c3ccc(Cl)cc3)cc2/C=C/c2cc(C(=O)N3CCOCC3)c3cc(Cl)ccc3n2)cc1`, the values for the negative logarithm of the IC50 (pIC50) in experiment [1], in experiment [2] and in experiment [3] were 4.94, 7.00 and 5.73, respectively.

Turning to `COc1ccc(-c2cc(-c3nnc(SC/C(=N/O)c4ccccc4)n3-c3ccccc3)c3ccccc3n2)cc1`, the pIC50 in experiment [4] was 6.32; in experiment [5], 5.80.

Take `CCOC(=O)c1cnn(C(=O)c2cc(-c3ccc(Cl)cc3)nc3ccc(OC)cc23)c1N`: the figures for the pIC50 in experiment [6] and in experiment [7] were less than 4.30 and 6.59, respectively.

In turn, `COc1ccc2ccc(F)c(CC(=O)N/N=C/c3ccc(C(F)(F)F)cc3)c2n1` showed a negative logarithm of the IC50 (pIC50) in experiment [8] of 6.89.
